In paper PMC11643077, “Synthesis of 1,2,4-Oxadiazin-5(6H)-One Derivatives and Their Biological Investigation as Monoamine Oxidase Inhibitors” (Molecules, 2024):

Tests used:
[1] = target: T1, MAO-B (Homo sapiens, UniProt P27338); test: Mode of MAO-B inhibition, Lineweaver-Burk plots; assay type: biochemical
T1 construct: purchased Merck
T1 sequence (P27338 1-520): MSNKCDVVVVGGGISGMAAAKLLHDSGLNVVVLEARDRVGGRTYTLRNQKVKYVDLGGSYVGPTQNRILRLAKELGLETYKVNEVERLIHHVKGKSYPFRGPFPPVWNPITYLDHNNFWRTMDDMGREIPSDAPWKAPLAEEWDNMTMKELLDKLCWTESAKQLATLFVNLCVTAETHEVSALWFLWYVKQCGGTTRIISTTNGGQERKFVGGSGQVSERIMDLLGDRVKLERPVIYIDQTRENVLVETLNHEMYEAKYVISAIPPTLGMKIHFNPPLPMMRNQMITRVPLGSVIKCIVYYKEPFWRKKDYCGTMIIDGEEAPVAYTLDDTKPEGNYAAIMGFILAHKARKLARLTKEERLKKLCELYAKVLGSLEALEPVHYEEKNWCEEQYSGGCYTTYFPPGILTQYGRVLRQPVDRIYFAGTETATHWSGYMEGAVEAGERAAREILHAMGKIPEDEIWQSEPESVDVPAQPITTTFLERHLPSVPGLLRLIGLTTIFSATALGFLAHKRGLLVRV
Procedure: To investigate the mode of MAO inhibition, Lineweaver–Burk plots were constructed for the two inhibitors of the respective MAO isoforms, 3f and 5f. For each inhibitor, six plots were constructed using a range of eight substrate concentrations (15–250 µM) for each plot. The inhibitor concentrations were selected to bracket the IC50 values. […] For each isoform, a plot was also constructed in the absence of the inhibitor.
To investigate the mode of inhibition, Lineweaver–Burk plots were constructed. A set of six plots were constructed for each test inhibitor using five inhibitor concentrations that bracketed the IC50 value as well as one plot in the absence of inhibitor. For each line, eight different concentrations of kynuramine (15–250 µM) were used. Subsequently, the slopes of the Lineweaver–Burk plots were plotted versus inhibitor concentration, and the Ki values were estimated from the x-intercept (Ki = −x-intercept).

[2] = target: T2, MAO-A (Homo sapiens, UniProt P21397); test: MAO-A inhibition, recombinant human enzyme, kynuramine substrate, fluorometric end-point; assay type: biochemical; settings: mean ± SD of triplicate, racemic mixtures, NI = no inhibition at 100 µM
T2 construct: purchased Merck
T2 sequence (P21397 1-527): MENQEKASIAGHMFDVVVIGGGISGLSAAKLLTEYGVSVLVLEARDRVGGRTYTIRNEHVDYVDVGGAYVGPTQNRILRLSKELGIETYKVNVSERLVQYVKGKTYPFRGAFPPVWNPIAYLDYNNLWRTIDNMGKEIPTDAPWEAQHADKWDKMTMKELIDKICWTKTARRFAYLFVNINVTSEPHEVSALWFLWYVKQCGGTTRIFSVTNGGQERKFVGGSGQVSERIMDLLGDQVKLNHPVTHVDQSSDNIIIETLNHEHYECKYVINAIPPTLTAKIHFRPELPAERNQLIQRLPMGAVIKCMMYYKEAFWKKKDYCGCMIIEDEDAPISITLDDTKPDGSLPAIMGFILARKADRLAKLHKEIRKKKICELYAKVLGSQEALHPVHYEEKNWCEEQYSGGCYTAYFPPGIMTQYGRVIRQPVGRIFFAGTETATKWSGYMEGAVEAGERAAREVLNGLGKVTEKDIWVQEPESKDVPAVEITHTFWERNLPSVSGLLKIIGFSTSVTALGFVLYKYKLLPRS
Procedure: (§1) The in vitro inhibition studies were carried out according to the published procedure, and the inhibition potencies were expressed as the IC50 values (Figure 2). […] A variety of C3 substituents were explored in this study, which included the phenyl, benzyl and 5-methylthiophen-2-yl moieties, while different substituents on the phenyl (e.g., CH3, OCH3, Cl, Br, F, CF3, OCF3, NO2, PhO) were considered.
(§2) The inhibition potencies of the 1,2,4-oxadiazin-5(6H)-one derivatives were determined using commercially available recombinant human MAO-A and MAO-B (Merck) according to the published procedure. Stock solutions of all compounds were prepared in DMSO and added to the enzyme reactions to yield a final concentration of 4% DMSO. […] Kynuramine was used as enzyme substrate for both MAO isoforms and was oxidized to ultimately form 4-hydroxyquinoline, which is a fluorescent metabolite. The concentrations of 4-hydroxyquinoline in the reactions were measured at end-point by fluorescence spectrometry (λex = 310 nm; λem = 400 nm). Using this approach, the rates of kynuramine oxidation by MAO were measured in the presence of different concentrations of the test inhibitors (0.003–100 µM) as well as in the absence of inhibitor. […] IC50 values were estimated from these plots and were reported as the mean ± SD of triplicate determinations.

[3] = target: T1, MAO-B; test: MAO-B inhibition, recombinant human enzyme, kynuramine substrate, fluorometric end-point; assay type: biochemical; settings: mean ± SD of triplicate, racemic mixtures, NI = no inhibition at 100 µM
Procedure: as §1, §2

[4] = system: MAO-B; parameters: method as in doi:10.1016/0223-5234(88)90141-9; settings: Figure 1; cited from earlier work
[5] = system: MAO-A; parameters: method as in doi:10.1016/0223-5234(88)90141-9; settings: Figure 1; cited from earlier work

| Structure (SMILES) | mode of MAO-B inhibition ([1]; Lineweaver-Burk plots) | Ki ([1]; from replot of Lineweaver-Burk slopes versus inhibitor concentration (0.25 to 1.25 µM), kynuramine 15–250 µM) | melting point | IC50 [2] | IC50 [3] | IC50 [4] | IC50 [5] |
| --- | --- | --- | --- | --- | --- | --- | --- |
| CCC1ON=C(c2ccc(Oc3ccc(OC)cc3)cc2)NC1=O (stereo not shown) [Compound 5f, 6-Ethyl-3-(4-(4-methoxyphenoxy)phenyl)-4H-1,2,4-oxadiazin-5(6H)-one] | competitive inhibition | 0.35 µM | 117 to 119 °C | 15.4 ± 1.98 µM | 0.9 ± 0.05 µM | – | – |
| N#CCCN1N=C(c2ccc(-c3ccccc3)cc2)OCC1=O [A, 2-(4-Biphenylyl)-4-(2-cyanoethyl)-4H-1,3,4-oxadiazin-5(6H)-one] | – | – | – | – | – | 0.63 µM | 32 µM |
